What was measured:
P. paneum = assay: Accelerated shelf-life testing (ASLT): time of appearance (TOA) and growth pattern of mould on inoculated breadcrumbs; type: cell-based, Penicillium paneum; details: Example 1, tin breads, ±500 spores, around 21 °C; CalPro 0.3% FWB, chitosan 1% FWB (about 1 wt.%)
A. niger = assay: Accelerated shelf-life testing (ASLT): time of appearance (TOA) of mould on inoculated breadcrumbs
Protocol: Breads were made by mixing the dough ingredients from Table 1. The wt.% for several ingredients are given based on flour weight (Flour Weight Based, FWB). For the prepared recipes the difference with total dry weight is insubstantial. The following breads were prepared: a control without any preservatives, a reference containing 0.3% flour weight based (FWB) calcium propionate (CalPro), and a bread containing 1% chitosan (KitoZyme, Belgium) with number average MW of 15 kDa and degree of deacetylation (DDA) of 70%. […] Ingredients were mixed using a spiral mixer for 10 minutes. Afterwards the dough for each trial was divided into three pieces of 520 g, rounded manually, and placed into bread tins. The dough pieces were placed in a proofing cabinet to rise at 40 °C and 80% relative humidity until they reach similar height (fermentation time between 60-70 min). The breads were baked for 22 minutes in a deck oven at 260 (bottom) and 230 (top) °C.
Following baking, the breads were cooled in a HEPA-filtered chamber for 90 min. One bread was used for pH measurement and two breads were subjected to ASLT.
To perform ASLT, the remaining two breads were sliced to 13 mm slices. The crumb (inner part of breads) of three random slices from each bread were cut out using a cookie cutter (3.2 cm diameter) and placed in sterile 6-well plates (2x breads × 3 slices). Two 6-well plates were prepared per bread type. Each bread piece in a 6-well plate was inoculated with 3 aliquots of ±500 spores (20 pL) of either A. niger or P. paneum. Therefore, 18 spots of each mould were inoculated per trial (6 bread piece × 3 aliquots). Freeze-dried spores were used in all experiments. The inoculated breads incubated at room temperature of around 21 °C untill visible mould appearance. The appearance of the moulds was imaged by taking photographs. The images were inspected visually, and the TOA was defined as mould appearance in hours after mould inoculation.
Due to limited availability of the high MW chitosan samples, ASLT was performed at small scale in bread rolls. […]

[1] = cited from earlier work

Compound | increased TOA of P. paneum compared to control bread without preservatives (P. paneum) [%] | effectiveness against A. niger, CalPro compared to chitosan (A. niger; CalPro 0.3% FWB vs chitosan 1% FWB) | TOA of A. niger improved compared to control without preservative (A. niger; CalPro 0.3% FWB, FWF 0.78% FWB, chitosan >0.5 wt.%, alone or in combination) | increased TOA of A. niger compared to control bread without preservatives (A. niger; Example 1, tin breads, ±500 spores, around 21 °C, CalPro 0.3% FWB, chitosan 1% FWB (about 1 wt.%)) [%] | pKa [1]
CCC(=O)[O-].CCC(=O)[O-].[Ca+2] [CalPro, calcium propionate] | 17 | more effective | approximately 50% | 80 | –
CC(O)C(=O)O (stereo not drawn) [lactic acid] | – | – | – | – | about 3.85
C/C=C/C=C/C(=O)O [sorbic acid] | – | – | – | – | about 4.76
